# Reference: paper PMC11565046, “Rational design of 2H-chromene-based antiphytovirals that inhibit virion assembly by outcompeting virus capsid-RNA interactions” (iScience, 2024)
# Where two headings read alike, the source gives them in different places.
# Tests used:
# PVY [1] = assay: Inactivating activity against PVY, half-leaf method on Chenopodium amaranticolor; assay type: in vivo, potato virus Y; conditions: Potato virus Y, in Chenopodium amaranticolor
# Description: (§1) According to previous reports,[46] PVY was infested in Nicotiana tabacum K326, and PVY was harvested and purified after showing severe infection symptoms on the leaves. The literature-guided protocol was followed to assess the curative, prophylactic, and […] potential of the target compounds under investigation.[15]
# Target compound solution (1,000 μg/mL) and 2 × virus solution were combined in equal quantities and incubated for 30 min. Evenly distribute emery onto the leaf blades, and apply the mixture of virus and compound solution onto the right side of C. amaranticolor leaf blades. Following this, an identical quantity of a 1× virus solution was applied to the untreated side of the leaf. Following a duration of 1.5 h, the emery residue present on the leaf surface was removed using a rinsing process utilizing water. The plants were incubated within a controlled greenhouse environment, maintaining a consistent temperature of 25°C. After 5−7 days, they proceeded to statistics the number of necrotic spots on the leaves. For each chemical, triplicate experiments were undertaken, and the average percentage of inhibition was subsequently determined.
# PVY [2] = assay: Protective activity against PVY, half-leaf method on Chenopodium amaranticolor; assay type: in vivo; conditions: Potato virus Y, in Chenopodium amaranticolor; 500 μg/mL; Chenopodium amaranticolor leaves; average of three replicates
# Description: as §1
# A 500 μg/mL solution of the targeted compound was delicately applied to one side of C. amaranticolor leaves, while the other side was treated with a 1% Tween 80 aqueous solution. The plants were positioned in a greenhouse set at 25°C. Following a 24 h period, the entire leaf surface was inoculated with PVY by uniformly distributing 200–300 mesh emery. After 1.5 h, the emery was washed off with water, and the plants were returned to the greenhouse. After 5–7 days, the number of necrotic spots was tallied, with the assessment based on the greenhouse population. Each compound was tested in triplicate, and the average inhibition rate was subsequently calculated.
# PVY [3] = assay: Curative activity against PVY, half-leaf method on Chenopodium amaranticolor; assay type: in vivo; conditions: Potato virus Y, in Chenopodium amaranticolor; 500 μg/mL; Chenopodium amaranticolor leaves; average of three replicates
# From the text: as §1
# To assess the curative effectiveness against PVY, a uniform layer of 200–300 mesh emery was applied to the leaves of C. amaranticolor, followed by rubbing with a virus solution. For 1.5 h, then the emery was washed off with water. After the leaves naturally dried, a 500 μg/mL solution of the test compound was carefully applied to one side of the leaf, while the opposite side received a 1% Tween 80 solution as a control. The plants were subsequently incubated in a greenhouse maintained at 25°C. After 5−7 days, the presence of necrotic spots on the leaves was recorded, with each compound tested on three replicate plants. The average inhibition rate was determined by analyzing the data from these replications.
# [4] = Chenopodium amaranticolor leaves, read-out: EC50 for inactivating activity
# [5] = inactivating activity, Table S1, read-out: Experimental pEC50 (converted)
Compound,EC50 (PVY [1]; [4]) [µg/mL],EC50 (PVY [1]; [5]) [µM],melting point [°C],inhibition at 500 µg/mL (PVY [2]) [%],inhibition at 500 µg/mL (PVY [3]) [%]
"COc1ccc(S(=O)(=O)Nc2ccc(/N=C/c3ccc4c(c3O)C=CC(C)(C)O4)cc2)cc1 [Compound C1, (E) -N-(4-(((5-hydroxy-2,2-dimethyl-2H-chromen-6-yl)methylene)amino)phenyl) -4-methoxybenzenesulfonamide]",441 ± 5.2,951,139 to 141,–,–
CC1(C)C=Cc2c(ccc(/C=N/c3ccc(NS(=O)(=O)c4ccc(C(F)(F)F)cc4)cc3)c2O)O1 [Compound C2],255.7 ± 0.72,509,132 to 134,–,–
CCCCCCCCS(=O)(=O)Nc1ccc(/N=C/c2ccc3c(c2O)C=CC(C)(C)O3)cc1 [Compound C3],605 ± 12.2,1290,94 to 96,–,–
CC1(C)C=Cc2c(ccc(/C=N/c3ccc(NS(=O)(=O)c4cccs4)cc3)c2O)O1 [Compound C4],667 ± 20.1,1520,148 to 150,–,–
CC1(C)C=Cc2c(ccc(/C=N/c3ccc(NS(=O)(=O)c4ccc(F)cc4)cc3)c2O)O1 [Compound C5],165 ± 8.7,366,144 to 146,–,–
CC1(C)C=Cc2c(ccc(/C=N/c3ccc(NS(=O)(=O)c4cccc(F)c4)cc3)c2O)O1 [Compound C7],100 ± 5.7,222,164 to 166,60 to 70,–
CC1(C)C=Cc2c(ccc(/C=N/c3ccc(NS(=O)(=O)c4ccccc4F)cc3)c2O)O1 [Compound C8],369 ± 9.9,667,175 to 177,–,–
CC1(C)C=Cc2c(ccc(/C=N/c3ccc(NS(=O)(=O)c4cccnc4)cc3)c2O)O1 [Compound C9],310 ± 8.6,713,150 to 152,–,–
CC1(C)C=Cc2c(ccc(/C=N/c3ccc(NS(=O)(=O)c4ccc(Br)s4)cc3)c2O)O1 [Compound C10],492 ± 13.3,951,140 to 142,60 to 70,60 to 70
CC1(C)C=Cc2c(ccc(/C=N/c3ccc(NS(=O)(=O)c4cccc(C#N)c4)cc3)c2O)O1 [Compound C11],703 ± 25.3,1530,152 to 154,–,–
CC1(C)C=Cc2c(ccc(/C=N/c3ccc(NS(=O)(=O)c4ccc([N+](=O)[O-])cc4)cc3)c2O)O1 [Compound C12],400 ± 7.5,836,164 to 166,–,–
CC1(C)C=Cc2c(ccc(/C=N/c3ccc(NS(=O)(=O)C4CC4)cc3)c2O)O1 [Compound C13],531 ± 20.7,1330,147 to 149,–,–
CC1(C)C=Cc2c(ccc(/C=N/c3ccc(NS(=O)(=O)c4cc(Cl)ccc4Cl)cc3)c2O)O1 [Compound C14],751 ± 19.4,1500,148 to 150,–,–
CC1(C)C=Cc2c(ccc(/C=N/c3ccc(NS(=O)(=O)c4cc(F)ccc4F)cc3)c2O)O1 [Compound C15],903 ± 14.3,1920,180 to 182,–,–
CC1(C)C=Cc2c(ccc(/C=N/c3ccc(NS(=O)(=O)c4cccc(Br)c4)cc3)c2O)O1 [Compound C16],688 ± 17.2,1350,161 to 163,60 to 70,60 to 70
CC1(C)C=Cc2c(ccc(/C=N/c3ccc(NS(=O)(=O)c4ccccc4)cc3)c2O)O1 [Compound C17],168 ± 4.8,388,134 to 136,–,–
CCc1ccc(S(=O)(=O)Nc2ccc(/N=C/c3ccc4c(c3O)C=CC(C)(C)O4)cc2)cc1 [Compound C18],202 ± 3.8,438,121 to 123,–,–
Cc1cc(C)c(S(=O)(=O)Nc2ccc(/N=C/c3ccc4c(c3O)C=CC(C)(C)O4)cc2)c(C)c1 [Compound C19],492 ± 11.2,1040,137 to 139,–,–
CC1(C)C=Cc2c(ccc(/C=N/c3ccc(NS(=O)(=O)c4ccc(C(C)(C)C)cc4)cc3)c2O)O1 [Compound C20],1000,2050,142 to 144,–,–
CC(=O)Nc1ccc(S(=O)(=O)Nc2ccc(/N=C/c3ccc4c(c3O)C=CC(C)(C)O4)cc2)cc1 [Compound C21],1020,2080,161 to 163,–,–

Compound,EC50 (PVY [1]; [4]) [µg/mL],EC50 (PVY [1]; [5]) [µM],melting point [°C],inhibition at 500 µg/mL (PVY [2]) [%],inhibition at 500 µg/mL (PVY [3]) [%]
CC1(C)C=Cc2c(ccc(/C=N/c3ccc(NS(=O)(=O)c4ccccc4C(F)(F)F)cc3)c2O)O1 [Compound C22],587 ± 9.9,1170,130 to 132,–,–
CC1(C)C=Cc2c(ccc(/C=N/c3ccc(NS(=O)(=O)c4cc(Cl)cc(Cl)c4)cc3)c2O)O1 [Compound C23],871 ± 17.3,1730,211 to 213,–,–
CC1(C)C=Cc2c(ccc(/C=N/c3ccc(NS(=O)(=O)c4ccc(Cl)s4)cc3)c2O)O1 [Compound C24],754 ± 10.3,1590,141 to 143,60 to 70,60 to 70
CC1(C)C=Cc2c(ccc(/C=N/c3ccc(NS(=O)(=O)c4ccccc4Cl)cc3)c2O)O1 [Compound C25],244 ± 10.2,521,166 to 168,–,–
CC1(C)C=Cc2c(ccc(/C=N/c3ccc(NS(=O)(=O)c4cc(F)cc(F)c4)cc3)c2O)O1 [Compound C26],100 ± 4.5,213,207 to 209,60 to 70,60 to 70
CC1(C)C=Cc2c(ccc(/C=N/c3ccc(NS(=O)(=O)c4ccc(OC(F)(F)F)cc4)cc3)c2O)O1 [Compound C30],834 ± 18.3,1610,128 to 130,–,–
CC1(C)C=Cc2c(ccc(/C=N/c3ccc(NS(=O)(=O)c4ccc(Cl)cc4Cl)cc3)c2O)O1 [Compound C31],976 ± 20,1950,154 to 156,–,–
CC1(C)C=Cc2c(ccc(/C=N/c3ccc(NS(=O)(=O)c4ccccc4Br)cc3)c2O)O1 [Compound C33],139 ± 3.2,272,170 to 172,–,–
CC1(C)C=Cc2c(ccc(/C=N/c3ccc(NS(=O)(=O)c4cccc(C(F)(F)F)c4)cc3)c2O)O1 [Compound C35],803 ± 12.3,1600,123 to 125,–,–
Cc1noc(C)c1S(=O)(=O)Nc1ccc(/N=C/c2ccc3c(c2O)C=CC(C)(C)O3)cc1 [Compound C39],397.1 ± 2.3,877,195 to 197,–,–
CC1(C)C=Cc2c(ccc(C=Nc3ccc(NS(=O)(=O)CC45CCC(CC4=O)C5(C)C)cc3)c2O)O1 (stereo not drawn) [Compound C40],204 ± 7.1,402,186 to 188,–,–
CC(C)=CCCC1(C)C=Cc2c(ccc(/C=N/c3ccc(NS(=O)(=O)c4ccc(Cl)cc4)cc3)c2O)O1 (stereo not drawn) [Compound C41],781 ± 15.3,1460,115 to 117,–,–
CC(C)=CCCC1(C)C=Cc2c(ccc(/C=N/c3ccc(NS(=O)(=O)c4ccc(Cl)s4)cc3)c2O)O1 (stereo not drawn) [Compound C43],512 ± 11,944,97 to 99,–,–
CC(C)=CCCC1(C)C=Cc2c(ccc(/C=N/c3ccc(NS(=O)(=O)c4cccc(C)c4)cc3)c2O)O1 (stereo not drawn) [Compound C44],882 ± 17.3,1710,84 to 86,–,–
CC(C)=CCCC1(C)C=Cc2c(ccc(/C=N/c3ccc(NS(=O)(=O)c4cccc(F)c4)cc3)c2O)O1 (stereo not drawn) [Compound C45],516 ± 9,991,113 to 115,–,–
CC(C)=CCCC1(C)C=Cc2c(ccc(/C=N/c3ccc(NS(=O)(=O)c4ccc(C(F)(F)F)cc4)cc3)c2O)O1 (stereo not drawn) [Compound C46],522 ± 8.1,916,130 to 132,–,–
CC(C)=CCCC1(C)C=Cc2c(ccc(/C=N/c3ccc(NS(=O)(=O)c4c(F)cccc4F)cc3)c2O)O1 (stereo not drawn) [Compound C47],630 ± 11.2,1170,80 to 82,–,–
CC(C)=CCCC1(C)C=Cc2c(ccc(/C=N/c3ccc(NS(=O)(=O)c4cc(F)cc(F)c4)cc3)c2O)O1 (stereo not drawn) [Compound C48],717 ± 17.8,1330,138 to 140,–,–
CC(C)=CCCC1(C)C=Cc2c(ccc(/C=N/c3ccc(NS(=O)(=O)c4ccc(Br)s4)cc3)c2O)O1 (stereo not drawn) [Compound C49],553 ± 9.3,944,75 to 77,–,–
